SMILES strings stand for the structures. *1 amine or outer side, *2 acyl side, *3 side chain or, on linkers, in order; H or OH if unused. Where a SMILES comes first, the peptide text is derived from it. Bridges are numbered along the chain shown (N, C = ends). [ ]: non-standard residue; d: D form. The star is where a group is joined. Phe(4-COOH) = N[C@@H](Cc1ccc(C(=O)O)cc1)C(=O)O; Bip = N[C@@H](Cc1ccc(-c2ccccc2)cc1)C(=O)O; Phe(4-CN) = N#Cc1ccc(C[C@H](N)C(=O)O)cc1; Phe(3-Me) = Cc1cccc(C[C@H](N)C(=O)O)c1; Phe(4-Me) = Cc1ccc(C[C@H](N)C(=O)O)cc1; X2 = CC(C)=C[C@H](N[*:1])C(=O)[*:2]; Val(3-OH) = CC(C)(O)[C@H](N)C(=O)O; Cha = N[C@@H](CC1CCCCC1)C(=O)O; Chg = N[C@H](C(=O)O)C1CCCCC1; Carboxymethyl = O=C(O)C*; NMeA = CN[C@@H](C)C(=O)O; Aun = NCCCCCCCCCCC(=O)O; Dab = NCC[C@H](N)C(=O)O

In general, IC50 refers to the concentration that gives 50% inhibition.

T1 sequence (Q15116 25-288): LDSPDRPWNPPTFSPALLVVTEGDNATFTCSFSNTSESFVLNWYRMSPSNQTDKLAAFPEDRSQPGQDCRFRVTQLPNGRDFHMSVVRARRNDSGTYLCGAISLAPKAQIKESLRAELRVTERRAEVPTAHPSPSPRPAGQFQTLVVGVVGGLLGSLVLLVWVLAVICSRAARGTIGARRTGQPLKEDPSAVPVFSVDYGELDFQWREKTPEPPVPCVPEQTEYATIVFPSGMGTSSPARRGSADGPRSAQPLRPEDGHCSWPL

This assay concerns the target T1, PD-1/PD-L1 interaction (PE-labeled human PD-L1-Ig binding to Jurkat cell line over-expressing human PD-1) (Homo sapiens, UniProt Q15116).
T1 construct: expressed in transfected cells; host or cells: Jurkat
Briefly: Jurkat-PD-1 Cell Binding High-Content Screening Assay (CBA). Particulars: Jurkat-hPD-1 cells, PE-labeled PD-L1-Ig 20 nM final; read-out: Jurkat HPD1 PDL1 IC50. Summed up:
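Jurkat cells overexpressing human PD-1 (8×10^3/well, DMEM + 10% FCS) preincubated with compound 2 h at 37 °C, then PE-labelled human PD-L1-Ig (20 nM final) for 1 h. Cells fixed in paraformaldehyde with Hoechst 33342; bound PD-L1 quantified by high-content imaging.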
Consider `CC[C@H](C)[C@@H]1NC(=O)[C@H](Cc2cccc(C)c2)NC(=O)[C@H](CC(=O)O)NC(=O)[C@H](Cc2ccc(C(=O)O)cc2)NC(=O)[C@H](CCN)NC(=O)CSC[C@@H](C(=O)N[C@@H](CCN)C(=O)NCCCCCCCCCCC(=O)O)NC(=O)[C@H](CO)NC(=O)[C@H](C(C)(C)O)NC(=O)[C@H](CC2CCCCC2)NC(=O)[C@H](CCN)NC(=O)[C@@H](CC(C)C)NC(=O)[C@H](C)N(C)C(=O)[C@H](Cc2ccc(OCC(=O)O)cc2)NC(=O)[C@H](Cc2ccc(-c3ccccc3)cc2)NC1=O` [Example 1299] ({CH2CO}-[Dab][Phe(4-COOH)]D[Phe(3-Me)]I[Bip]Y(Carboxymethyl)[NMeA][dL][Dab][Cha][Val(3-OH)]SC[Dab][Aun]-OH; thioether N-14), for which the IC50 was 11.6 nM.
Then `Cc1cccc(C[C@@H]2NC(=O)[C@H](CC(=O)O)NC(=O)[C@H](Cc3ccc(C(=O)O)cc3)NC(=O)[C@H](CCN)NC(=O)CSC[C@@H](C(=O)N[C@@H](CCN)C(=O)NCCCCCCCCCCC(=O)O)NC(=O)[C@H](CO)NC(=O)[C@H](C(C)(C)O)NC(=O)[C@H](CC3CCCCC3)NC(=O)[C@H](CCN)NC(=O)[C@@H](CC(C)C)NC(=O)[C@H](C)N(C)C(=O)[C@H](Cc3ccc(OCC(=O)O)cc3)NC(=O)[C@H](Cc3ccc(-c4ccccc4)cc3)NC(=O)[C@H](Cc3ccc(C#N)cc3)NC2=O)c1` [Example 1300] ({CH2CO}-[Dab][Phe(4-COOH)]D[Phe(3-Me)][Phe(4-CN)][Bip]Y(Carboxymethyl)[NMeA][dL][Dab][Cha][Val(3-OH)]SC[Dab][Aun]-OH; thioether N-14), with 21.5 nM; and `Cc1ccc(C[C@@H]2NC(=O)[C@H](Cc3cccc(C)c3)NC(=O)[C@H](CC(=O)O)NC(=O)[C@H](Cc3ccc(C(=O)O)cc3)NC(=O)[C@H](CCN)NC(=O)CSC[C@@H](C(=O)N[C@@H](CCN)C(=O)NCCCCCCCCCCC(=O)O)NC(=O)[C@H](CO)NC(=O)[C@H](C(C)(C)O)NC(=O)[C@H](CC3CCCCC3)NC(=O)[C@H](CCN)NC(=O)[C@@H](CC(C)C)NC(=O)[C@H](C)N(C)C(=O)[C@H](Cc3ccc(OCC(=O)O)cc3)NC(=O)[C@H](Cc3ccc(-c4ccccc4)cc3)NC2=O)cc1` [Example 1301] ({CH2CO}-[Dab][Phe(4-COOH)]D[Phe(3-Me)][Phe(4-Me)][Bip]Y(Carboxymethyl)[NMeA][dL][Dab][Cha][Val(3-OH)]SC[Dab][Aun]-OH; thioether N-14), with 26.9 nM; and `Cc1cccc(C[C@@H]2NC(=O)[C@H](CC(=O)O)NC(=O)[C@H](Cc3ccc(C(=O)O)cc3)NC(=O)[C@H](CCN)NC(=O)CSC[C@@H](C(=O)N[C@@H](CCN)C(=O)NCCCCCCCCCCC(=O)O)NC(=O)[C@H](CO)NC(=O)[C@H](C(C)(C)O)NC(=O)[C@H](CC3CCCCC3)NC(=O)[C@H](CCN)NC(=O)[C@@H](CC(C)C)NC(=O)[C@H](C)N(C)C(=O)[C@H](Cc3ccc(OCC(=O)O)cc3)NC(=O)[C@H](Cc3ccc(-c4ccccc4)cc3)NC(=O)[C@H](C3CCCCC3)NC2=O)c1` [Example 1302] ({CH2CO}-[Dab][Phe(4-COOH)]D[Phe(3-Me)][Chg][Bip]Y(Carboxymethyl)[NMeA][dL][Dab][Cha][Val(3-OH)]SC[Dab][Aun]-OH; thioether N-14), with 17.6 nM.
Then `CC(C)=C[C@@H]1NC(=O)[C@H](Cc2cccc(C)c2)NC(=O)[C@H](CC(=O)O)NC(=O)[C@H](Cc2ccc(C(=O)O)cc2)NC(=O)[C@H](CCN)NC(=O)CSC[C@@H](C(=O)N[C@@H](CCN)C(=O)NCCCCCCCCCCC(=O)O)NC(=O)[C@H](CO)NC(=O)[C@H](C(C)(C)O)NC(=O)[C@H](CC2CCCCC2)NC(=O)[C@H](CCN)NC(=O)[C@@H](CC(C)C)NC(=O)[C@H](C)N(C)C(=O)[C@H](Cc2ccc(OCC(=O)O)cc2)NC(=O)[C@H](Cc2ccc(-c3ccccc3)cc2)NC1=O` [Example 1303] ({CH2CO}-[Dab][Phe(4-COOH)]D[Phe(3-Me)][X2][Bip]Y(Carboxymethyl)[NMeA][dL][Dab][Cha][Val(3-OH)]SC[Dab][Aun]-OH; thioether N-14), with 26.7 nM.

The values above are taken from US20260070945A1, “MACROCYCLIC IMMUNOMODULATORS” (Bristol-Myers Squibb Company, priority 2022, published 2026).
